Test results published in patent US20090325964A1, “Piperazine Metabotropic Glutamate Receptor 5 (MGLUR5) Negative Allosteric Modulators For Anxiety/Depression” (Wyeth, priority 2008, published 2009).

Columns and labels:
[1] = target: mGluR5 (Rattus norvegicus, UniProt P31424); test: IC50 column under 'Biological Activity' (assay not identified in the shown text; not the binding Ki)
[2] = target: T1, rat mGluR5 receptor (Rattus norvegicus, UniProt P31424); test: [3H]-MPEP displacement binding assay, HEK-293 cell membranes expressing rat mGluR5; details: [3H]-MPEP displacement, rat mGluR5; read-out: Median Ki
T1 construct: expressed in transfected cells; host or cells: HEK-293
Procedure, shortened: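 Membranes from HEK-293 cells expressing rat mGluR5 (12-25 μg protein), incubated 60 min at room temperature with 4 nM [3H]-MPEP in 50 mM Tris pH 7.5, then filtered. Nonspecific binding defined with 10 μM MPEP.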

mGluR5, sequence (P31424 21-1203): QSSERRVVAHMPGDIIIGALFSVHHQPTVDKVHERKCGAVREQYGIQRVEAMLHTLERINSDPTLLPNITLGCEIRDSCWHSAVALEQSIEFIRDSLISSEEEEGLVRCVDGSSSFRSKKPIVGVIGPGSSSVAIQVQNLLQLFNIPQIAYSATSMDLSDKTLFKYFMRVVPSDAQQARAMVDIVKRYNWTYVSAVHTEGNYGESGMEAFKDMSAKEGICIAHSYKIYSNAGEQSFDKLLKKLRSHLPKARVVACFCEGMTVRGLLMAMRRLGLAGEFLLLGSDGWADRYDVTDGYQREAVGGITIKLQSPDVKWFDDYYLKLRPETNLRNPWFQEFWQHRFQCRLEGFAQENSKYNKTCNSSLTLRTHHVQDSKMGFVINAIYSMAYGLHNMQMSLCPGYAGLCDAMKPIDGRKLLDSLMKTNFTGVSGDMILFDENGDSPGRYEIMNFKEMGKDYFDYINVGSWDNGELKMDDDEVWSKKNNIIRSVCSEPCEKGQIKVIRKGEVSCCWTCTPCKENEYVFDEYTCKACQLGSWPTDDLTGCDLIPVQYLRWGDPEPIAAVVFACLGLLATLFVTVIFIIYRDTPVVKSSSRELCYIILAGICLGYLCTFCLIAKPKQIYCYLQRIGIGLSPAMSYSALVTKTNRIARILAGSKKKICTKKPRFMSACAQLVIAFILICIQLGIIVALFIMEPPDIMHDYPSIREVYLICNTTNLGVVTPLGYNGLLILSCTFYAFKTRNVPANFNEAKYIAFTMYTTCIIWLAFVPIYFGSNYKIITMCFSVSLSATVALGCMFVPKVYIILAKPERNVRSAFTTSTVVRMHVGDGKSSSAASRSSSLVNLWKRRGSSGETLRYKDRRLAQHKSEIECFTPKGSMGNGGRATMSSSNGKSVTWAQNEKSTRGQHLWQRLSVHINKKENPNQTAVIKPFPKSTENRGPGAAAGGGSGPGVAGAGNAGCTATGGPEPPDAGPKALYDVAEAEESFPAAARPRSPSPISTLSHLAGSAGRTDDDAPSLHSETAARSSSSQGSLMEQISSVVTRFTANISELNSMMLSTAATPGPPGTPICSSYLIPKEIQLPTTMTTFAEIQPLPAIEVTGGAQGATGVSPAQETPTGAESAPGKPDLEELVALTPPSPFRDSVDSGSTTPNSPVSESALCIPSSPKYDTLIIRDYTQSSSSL
T1 sequence (P31424 21-1203): as above

IC50 [1]	Ki [2]	SMILES
37 nM	19 nM	COc1ccc(C(=O)N2CCN(c3ncccc3Cl)CC2)cc1C#Cc1ccccn1 [Compound 186, 1-(3-chloropyridin-2-yl)-4-[4-methoxy-3-(pyridin-2-ylethynyl)benzoyl]piperazine]
834 nM	5 nM	COc1ccc(C(=O)N2CCN(c3cccc(C(F)(F)F)c3)CC2)cc1C#Cc1ccccn1 [Compound 187, 1-[4-methoxy-3-(pyridin-2-ylethynyl)benzoyl]-4-[3-(trifluoromethyl)phenyl]piperazine]
86 nM	7 nM	COc1ccc(C(=O)N2CCN(c3ccc(Cl)cn3)CC2)cc1C#Cc1ccccn1 [Compound 188, 1-(5-chloropyridin-2-yl)-4-[4-methoxy-3-(pyridin-2-ylethynyl)benzoyl]piperazine]
148 nM	4 nM	COc1ccc(C(=O)N2CCN(c3cccc(Cl)c3)CC2)cc1C#Cc1ccccn1 [Compound 189, 1-(3-chlorophenyl)-4-[4-methoxy-3-(pyridin-2-ylethynyl)benzoyl]piperazine]
408 nM	413 nM	COc1ccc(C(=O)N2CCN(c3ncc(C(F)(F)F)cc3Cl)CC2)cc1C#Cc1ccccn1 [Compound 190, 1-[3-chloro-5-(trifluoromethyl)pyridin-2-yl]-4-[4-methoxy-3-(pyridin-2-ylethynyl)benzoyl]piperazine]
31 nM	19 nM	COc1ccc(C(=O)N2CCN(c3cc(C)ccn3)CC2)cc1C#Cc1ccccn1 [Compound 191, 1-[4-methoxy-3-(pyridin-2-ylethynyl)benzoyl]-4-(4-methylpyridin-2-yl)piperazine]
109 nM	45 nM	COc1ccc(C(=O)N2CCN(c3nc(C)cc(C)n3)CC2)cc1C#Cc1ccccn1 [Compound 192, 2-{4-[4-methoxy-3-(pyridin-2-ylethynyl)benzoyl]piperazin-1-yl}-4,6-dimethylpyrimidine]
46 nM	34 nM	COc1ccc(C(=O)N2CCN(c3nccnc3C#N)CC2)cc1C#Cc1ccccn1 [Compound 193, 3-{4-[4-methoxy-3-(pyridin-2-ylethynyl)benzoyl]piperazin-1-yl}pyrazine-2-carbonitrile]
78 nM	4 nM	COc1ccc(C(=O)N2CCN(c3nccc(C(F)(F)F)n3)CC2)cc1C#Cc1ccccn1 [Compound 194, 2-{4-[4-methoxy-3-(pyridin-2-ylethynyl)benzoyl]piperazin-1-yl}-4-(trifluoromethyl)pyrimidine]
702 nM	26 nM	COc1ccc(C(=O)N2CCN(c3cccc(O)c3)CC2)cc1C#Cc1ccccn1 [Compound 195, 3-{4-[4-methoxy-3-(pyridin-2-ylethynyl)benzoyl]piperazin-1-yl}phenol]
65 nM	16 nM	COc1ccc(C(=O)N2CCN(c3cccc(C)c3)CC2)cc1C#Cc1ccccn1 [Compound 196, 1-[4-methoxy-3-(pyridin-2-ylethynyl)benzoyl]-4-(3-methylphenyl)piperazine]
56 nM	12 nM	COc1ccc(C(=O)N2CCN(c3ncc(Br)c(OC)n3)CC2)cc1C#Cc1ccccn1 [Compound 197, 5-bromo-4-methoxy-2-{4-[4-methoxy-3-(pyridin-2-ylethynyl)benzoyl]piperazin-1-yl}pyrimidine]
> 1000 nM	76 nM	COc1ccc(C(=O)N2C[C@H]3C[C@H]2CN3c2ccc(Cl)cc2)cc1C#Cc1ccccn1 [Compound 199, (1R,4S)-2-(4-chlorophenyl)-5-[4-methoxy-3-(pyridin-2-ylethynyl)benzoyl]-2,5-diazabicyclo[2.2.1]heptane]
24 nM	21 nM	COc1ccnc(N2CCN(C(=O)c3ccc(OC)c(C#Cc4ccccn4)c3)CC2)n1 [Compound 200, 4-methoxy-2-{4-[4-methoxy-3-(pyridin-2-ylethynyl)benzoyl]piperazin-1-yl}pyrimidine]
24 nM	3 nM	COc1ccc(C(=O)N2CCN(c3nsc4ccccc34)CC2)cc1C#Cc1ccccn1 [Compound 201, 3-{4-[4-methoxy-3-(pyridin-2-ylethynyl)benzoyl]piperazin-1-yl}-1,2-benzisothiazole]
132 nM	29 nM	COc1ccc(C(=O)N2CCN(c3cncc(C)n3)CC2)cc1C#Cc1ccccn1 [Compound 204, 2-{4-[4-methoxy-3-(pyridin-2-ylethynyl)benzoyl]piperazin-1-yl}-6-methylpyrazine]
> 1000 nM	131 nM	COc1ccc(C(=O)N2CCCN(c3ccccn3)CC2)cc1C#Cc1ccccn1 [Compound 205, 1-[4-methoxy-3-(pyridin-2-ylethynyl)benzoyl]-4-pyridin-2-yl-1,4-diazepane]
295 nM	66 nM	COc1ccc(C(=O)N2CCN(c3nnc(C(F)(F)F)s3)CC2)cc1C#Cc1ccccn1 [Compound 206, 1-[4-methoxy-3-(pyridin-2-ylethynyl)benzoyl]-4-[5-(trifluoromethyl)-1,3,4-thiadiazol-2-yl]piperazine]
306 nM	19 nM	COc1ccc(C(=O)N2C[C@H]3C[C@H]2CN3c2cccc(F)c2)cc1C#Cc1ccccn1 [Compound 207, (1R,4S)-2-(3-fluorophenyl)-5-[4-methoxy-3-(pyridin-2-ylethynyl)benzoyl]-2,5-diazabicyclo[2.2.1]heptane]
141 nM	21 nM	COc1ccc(C(=O)N2CCN(c3ncccc3C)CC2)cc1C#Cc1ccccn1 [Compound 208, 1-[4-methoxy-3-(pyridin-2-ylethynyl)benzoyl]-4-(3-methylpyridin-2-yl)piperazine]
86 nM	11 nM	COc1cccc(N2CCN(C(=O)c3ccc(OC)c(C#Cc4ccccn4)c3)CC2)n1 [Compound 213, 1-(6-methoxypyridin-2-yl)-4-[4-methoxy-3-(pyridin-2-ylethynyl)benzoyl]piperazine]
> 1000 nM	107 nM	COc1ccc(C(=O)N2CCN(c3ccccc3Cl)CC2)cc1C#Cc1ccccn1 [Compound 216, 1-(2-chlorophenyl)-4-[4-methoxy-3-(pyridin-2-ylethynyl)benzoyl]piperazine]
336 nM	27 nM	COc1ccc(C(=O)N2CCN(c3ccc(Cl)cc3)CC2)cc1C#Cc1ccccn1 [Compound 217, 1-(4-chlorophenyl)-4-[4-methoxy-3-(pyridin-2-ylethynyl)benzoyl]piperazine]
> 1000 nM	48 nM	COc1ccc(C(=O)N2CCN(c3ccc(Cl)c(Cl)c3)CC2)cc1C#Cc1ccccn1 [Compound 218, 1-(3,4-dichlorophenyl)-4-[4-methoxy-3-(pyridin-2-ylethynyl)benzoyl]piperazine]
> 1000 nM	168 nM	COc1ccc(C(=O)N2CCN(c3cccc(C)c3C)CC2)cc1C#Cc1ccccn1 [Compound 219, 1-(2,3-dimethylphenyl)-4-[4-methoxy-3-(pyridin-2-ylethynyl)benzoyl]piperazine]
> 1000 nM	89 nM	COc1ccc(C(=O)N2CCN(c3cc(C)nc(C(C)C)n3)CC2)cc1C#Cc1ccccn1 [Compound 220, 2-isopropyl-4-{4-[4-methoxy-3-(pyridin-2-ylethynyl)benzoyl]piperazin-1-yl}-6-methylpyrimidine]
